For test [1], the target named is T1, Peroxisome proliferator-activated receptor alpha (Homo sapiens, UniProt Q07869).
T1 sequence (Q07869 whole entry): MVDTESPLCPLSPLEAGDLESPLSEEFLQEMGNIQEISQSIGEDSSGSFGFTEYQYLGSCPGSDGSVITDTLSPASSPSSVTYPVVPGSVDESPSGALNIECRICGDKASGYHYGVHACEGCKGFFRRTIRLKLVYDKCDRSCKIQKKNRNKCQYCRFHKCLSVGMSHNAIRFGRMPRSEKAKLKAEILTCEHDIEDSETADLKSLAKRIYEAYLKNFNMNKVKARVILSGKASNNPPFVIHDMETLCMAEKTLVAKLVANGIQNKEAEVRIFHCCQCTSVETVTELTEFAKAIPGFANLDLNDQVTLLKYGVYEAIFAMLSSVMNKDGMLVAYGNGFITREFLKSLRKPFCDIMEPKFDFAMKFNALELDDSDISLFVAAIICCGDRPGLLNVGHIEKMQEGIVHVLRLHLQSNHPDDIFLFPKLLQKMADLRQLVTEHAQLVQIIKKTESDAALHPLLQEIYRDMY
In kind it is functional.

Test [2] addresses T2, Prostaglandin G/H synthase 1 (Rattus norvegicus, UniProt Q63921).
T2 sequence (Q63921 whole entry): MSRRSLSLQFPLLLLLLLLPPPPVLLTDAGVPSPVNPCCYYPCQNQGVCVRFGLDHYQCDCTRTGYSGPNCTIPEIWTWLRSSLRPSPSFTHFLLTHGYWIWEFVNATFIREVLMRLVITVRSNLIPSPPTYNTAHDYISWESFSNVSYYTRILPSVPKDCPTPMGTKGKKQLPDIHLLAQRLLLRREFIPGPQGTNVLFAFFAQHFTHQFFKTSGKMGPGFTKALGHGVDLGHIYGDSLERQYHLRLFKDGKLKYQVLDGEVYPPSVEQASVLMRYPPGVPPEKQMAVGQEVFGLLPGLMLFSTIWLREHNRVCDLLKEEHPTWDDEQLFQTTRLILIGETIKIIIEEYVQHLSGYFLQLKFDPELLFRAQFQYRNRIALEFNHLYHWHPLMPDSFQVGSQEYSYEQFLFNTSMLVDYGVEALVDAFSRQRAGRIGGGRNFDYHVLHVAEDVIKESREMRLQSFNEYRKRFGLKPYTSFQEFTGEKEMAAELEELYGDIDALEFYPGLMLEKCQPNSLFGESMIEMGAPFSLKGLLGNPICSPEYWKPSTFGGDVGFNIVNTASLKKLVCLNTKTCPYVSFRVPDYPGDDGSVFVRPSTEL
Format: functional.

Test [3] has as its target T3, Alpha-2A adrenergic receptor (Homo sapiens, UniProt P08913).
T3 sequence (P08913 whole entry): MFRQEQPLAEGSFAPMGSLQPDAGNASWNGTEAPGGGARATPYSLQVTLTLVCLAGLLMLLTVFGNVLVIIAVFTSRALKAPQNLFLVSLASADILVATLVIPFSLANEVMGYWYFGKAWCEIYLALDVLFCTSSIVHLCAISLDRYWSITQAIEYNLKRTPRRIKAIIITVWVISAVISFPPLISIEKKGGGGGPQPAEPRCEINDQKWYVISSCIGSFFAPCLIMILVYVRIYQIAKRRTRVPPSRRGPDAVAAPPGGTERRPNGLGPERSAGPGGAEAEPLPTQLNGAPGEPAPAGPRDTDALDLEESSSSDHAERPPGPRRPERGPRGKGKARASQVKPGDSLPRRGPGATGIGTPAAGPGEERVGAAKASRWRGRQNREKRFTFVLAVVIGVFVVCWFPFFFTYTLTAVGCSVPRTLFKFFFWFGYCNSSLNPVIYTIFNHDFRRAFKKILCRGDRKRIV

For another test, the target named is D(1A) dopamine receptor (Homo sapiens, UniProt P21728).
D(1A) dopamine receptor, sequence (P21728 whole entry): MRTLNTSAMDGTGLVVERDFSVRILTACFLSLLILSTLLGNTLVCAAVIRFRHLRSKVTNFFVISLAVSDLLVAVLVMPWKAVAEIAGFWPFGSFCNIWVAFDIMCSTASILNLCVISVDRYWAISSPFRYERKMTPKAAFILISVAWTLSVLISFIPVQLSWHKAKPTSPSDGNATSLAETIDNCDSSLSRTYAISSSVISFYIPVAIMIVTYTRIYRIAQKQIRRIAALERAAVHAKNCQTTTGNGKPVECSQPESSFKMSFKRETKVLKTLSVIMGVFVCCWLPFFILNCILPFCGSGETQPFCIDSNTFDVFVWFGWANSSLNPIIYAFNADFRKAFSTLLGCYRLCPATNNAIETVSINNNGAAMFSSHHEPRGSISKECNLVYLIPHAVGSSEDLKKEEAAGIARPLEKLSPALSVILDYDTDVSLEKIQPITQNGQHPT
In another test the target is Prothrombin (Homo sapiens, UniProt P00734). Format: functional.
For the next test, the target named is Histamine H3 receptor (Homo sapiens, UniProt Q9Y5N1).
Histamine H3 receptor, sequence (Q9Y5N1 whole entry): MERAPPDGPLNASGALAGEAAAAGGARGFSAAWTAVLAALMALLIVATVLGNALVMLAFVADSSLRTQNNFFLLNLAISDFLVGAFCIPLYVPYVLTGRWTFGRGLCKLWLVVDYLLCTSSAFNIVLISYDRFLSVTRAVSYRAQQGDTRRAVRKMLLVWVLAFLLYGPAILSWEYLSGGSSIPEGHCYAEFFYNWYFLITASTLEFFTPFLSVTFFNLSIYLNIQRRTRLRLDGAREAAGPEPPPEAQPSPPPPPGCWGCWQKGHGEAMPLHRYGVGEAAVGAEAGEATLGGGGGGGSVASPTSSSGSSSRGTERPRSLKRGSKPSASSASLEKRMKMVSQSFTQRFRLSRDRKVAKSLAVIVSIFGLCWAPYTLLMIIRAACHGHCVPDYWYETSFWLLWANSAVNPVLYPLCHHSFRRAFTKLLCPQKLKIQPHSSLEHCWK
Test [4] concerns the target T4, 5-hydroxytryptamine receptor 1A (Homo sapiens, UniProt P08908).
T4 sequence (P08908 whole entry): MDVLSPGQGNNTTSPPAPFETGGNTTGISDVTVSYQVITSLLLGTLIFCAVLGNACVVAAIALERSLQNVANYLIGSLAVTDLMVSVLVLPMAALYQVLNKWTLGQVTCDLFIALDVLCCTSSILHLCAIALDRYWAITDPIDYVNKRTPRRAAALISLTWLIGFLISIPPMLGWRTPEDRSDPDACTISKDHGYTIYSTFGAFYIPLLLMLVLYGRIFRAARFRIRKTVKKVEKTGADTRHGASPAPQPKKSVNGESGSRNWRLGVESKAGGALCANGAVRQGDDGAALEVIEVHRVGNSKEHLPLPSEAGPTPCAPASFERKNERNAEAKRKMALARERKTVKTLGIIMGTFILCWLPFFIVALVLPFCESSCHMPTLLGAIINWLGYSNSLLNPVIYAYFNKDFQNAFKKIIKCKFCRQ

Test [5] concerns the target Prostaglandin G/H synthase 1 (Homo sapiens, UniProt P23219). Format: functional.
The target in test [6] is Sodium-dependent dopamine transporter (Homo sapiens, UniProt Q01959).
Sodium-dependent dopamine transporter, sequence (Q01959 whole entry): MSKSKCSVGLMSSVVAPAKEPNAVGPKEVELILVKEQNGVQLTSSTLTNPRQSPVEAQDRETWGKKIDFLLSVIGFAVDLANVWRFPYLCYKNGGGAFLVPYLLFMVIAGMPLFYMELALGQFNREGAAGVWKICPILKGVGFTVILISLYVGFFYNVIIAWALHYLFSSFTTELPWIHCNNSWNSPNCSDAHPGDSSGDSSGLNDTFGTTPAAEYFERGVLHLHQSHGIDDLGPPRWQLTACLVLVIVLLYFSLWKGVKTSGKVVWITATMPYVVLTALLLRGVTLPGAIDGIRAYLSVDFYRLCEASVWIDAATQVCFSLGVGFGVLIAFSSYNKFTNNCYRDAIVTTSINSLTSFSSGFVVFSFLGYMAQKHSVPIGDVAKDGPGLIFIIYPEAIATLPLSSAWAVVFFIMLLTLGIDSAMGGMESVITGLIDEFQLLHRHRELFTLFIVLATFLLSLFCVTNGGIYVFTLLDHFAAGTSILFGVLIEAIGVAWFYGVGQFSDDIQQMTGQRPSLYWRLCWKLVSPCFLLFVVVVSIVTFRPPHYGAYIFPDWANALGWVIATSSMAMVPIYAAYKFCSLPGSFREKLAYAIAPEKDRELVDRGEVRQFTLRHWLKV

The structures appear in SMILES notation.
Also: assay procedure not described here.

Prostaglandin G/H synthase 1 (Homo sapiens, UniProt P23219), sequence (P23219 whole entry): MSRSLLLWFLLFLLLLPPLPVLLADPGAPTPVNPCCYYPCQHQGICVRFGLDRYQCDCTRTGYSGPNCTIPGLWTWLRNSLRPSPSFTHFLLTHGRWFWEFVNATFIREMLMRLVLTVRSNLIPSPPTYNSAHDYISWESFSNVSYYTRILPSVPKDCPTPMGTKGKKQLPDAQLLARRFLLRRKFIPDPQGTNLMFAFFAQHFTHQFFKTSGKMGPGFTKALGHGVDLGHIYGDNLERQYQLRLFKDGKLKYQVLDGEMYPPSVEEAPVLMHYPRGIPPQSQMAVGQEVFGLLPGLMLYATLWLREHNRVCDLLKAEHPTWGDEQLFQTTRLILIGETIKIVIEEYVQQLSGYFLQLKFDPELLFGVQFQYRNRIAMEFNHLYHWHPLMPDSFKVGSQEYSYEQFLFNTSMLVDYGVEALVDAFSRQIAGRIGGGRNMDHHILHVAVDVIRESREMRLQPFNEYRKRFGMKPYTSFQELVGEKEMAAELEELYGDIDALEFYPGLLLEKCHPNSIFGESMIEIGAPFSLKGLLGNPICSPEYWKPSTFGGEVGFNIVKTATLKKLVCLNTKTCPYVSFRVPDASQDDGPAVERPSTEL

Broadly, the AC50 is the midpoint of the concentration-response curve, whichever way the signal moves. `CCOC(=O)C(C)(C)Oc1ccc(Cl)cc1` [CLOFIBRATE] yielded a concentration at half-maximal activity (AC50) in [1] above 30 µM.

For `CCOC(=O)c1ncn2c1CN(C)C(=O)c1cc(F)ccc1-2` [FLUMAZENIL], in test [2], the AC50 is above 30 µM.

As for `CCN(CC)CCCC(C)Nc1c2ccc(Cl)cc2nc2ccc(OC)cc12` (centres undefined) [QUINACRINE], the AC50 in test [3] is 11.9 µM; at D(1A) dopamine receptor, 12.3 µM; at Prothrombin it was above 30 µM; on Histamine H3 receptor, 0.693 µM; in test [4], 2.26 µM; in test [5], above 30 µM. Moreover, the AC50 in [6] amounted to 18.4 µM.

For the origin of these results see ChEMBL document CHEMBL5291721, “A preclinical secondary pharmacology resource illuminates target-adverse drug reaction associations of marketed drugs” (Nat Commun, 2023).
